Measurements reported in ChEMBL document CHEMBL1201862, “PubChem BioAssay data set” (2004).
Calls of active or inactive are those of the source.

Experiments:
[1] = biological target: Phosphorylase b kinase gamma catalytic chain, liver/testis isoform (Homo sapiens, UniProt P15735); format: functional;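 also: PHKG2 measured as one member of a kinome-wide kinase panel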
[2] = biological target: Glycogen synthase kinase-3 alpha (Homo sapiens, UniProt P49840); format: functional;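 also: GSK3A result taken from a broad kinome-wide kinase panel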
[3] = biological target: Mitogen-activated protein kinase kinase kinase kinase 2 (Homo sapiens, UniProt Q12851); format: functional;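 also: measured as one member of a kinome-wide kinase panel, with MAP4K2 as the panel entry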
[4] = biological target: MAP kinase-activated protein kinase 3 (Homo sapiens, UniProt Q16644); format: functional;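 also: value comes from a kinome-wide profiling panel in which MAPKAPK3 is one of the panel members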
[5] = biological target: T1, Exodeoxyribonuclease V (Escherichia coli (strain K12), UniProt P04993+P07648+P08394); assay: E. coli RecBCD inhibitors, dose response, counter-screen for AddAB inhibitor project, absorbance, V66 E. coli, mutant T4 phage (AID 492957); format: functional, cell-based, Escherichia coli str. K-12 substr. MG1655
T1 sequence (P04993 whole entry): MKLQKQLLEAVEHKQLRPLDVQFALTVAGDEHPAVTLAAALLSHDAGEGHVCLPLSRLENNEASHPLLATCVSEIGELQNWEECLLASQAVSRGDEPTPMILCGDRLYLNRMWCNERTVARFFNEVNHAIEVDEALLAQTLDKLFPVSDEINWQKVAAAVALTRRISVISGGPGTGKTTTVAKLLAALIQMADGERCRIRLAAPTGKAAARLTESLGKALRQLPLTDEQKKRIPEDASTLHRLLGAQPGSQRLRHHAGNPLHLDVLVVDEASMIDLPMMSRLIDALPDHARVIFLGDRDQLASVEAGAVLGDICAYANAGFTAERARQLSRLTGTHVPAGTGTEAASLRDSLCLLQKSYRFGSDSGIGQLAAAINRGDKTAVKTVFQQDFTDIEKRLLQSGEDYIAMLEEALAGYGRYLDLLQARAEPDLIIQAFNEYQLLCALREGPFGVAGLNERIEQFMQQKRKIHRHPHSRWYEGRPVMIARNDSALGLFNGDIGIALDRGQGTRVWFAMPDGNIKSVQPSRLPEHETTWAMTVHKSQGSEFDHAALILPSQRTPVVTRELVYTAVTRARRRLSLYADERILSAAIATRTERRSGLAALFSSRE
T1 sequence (P07648 whole entry): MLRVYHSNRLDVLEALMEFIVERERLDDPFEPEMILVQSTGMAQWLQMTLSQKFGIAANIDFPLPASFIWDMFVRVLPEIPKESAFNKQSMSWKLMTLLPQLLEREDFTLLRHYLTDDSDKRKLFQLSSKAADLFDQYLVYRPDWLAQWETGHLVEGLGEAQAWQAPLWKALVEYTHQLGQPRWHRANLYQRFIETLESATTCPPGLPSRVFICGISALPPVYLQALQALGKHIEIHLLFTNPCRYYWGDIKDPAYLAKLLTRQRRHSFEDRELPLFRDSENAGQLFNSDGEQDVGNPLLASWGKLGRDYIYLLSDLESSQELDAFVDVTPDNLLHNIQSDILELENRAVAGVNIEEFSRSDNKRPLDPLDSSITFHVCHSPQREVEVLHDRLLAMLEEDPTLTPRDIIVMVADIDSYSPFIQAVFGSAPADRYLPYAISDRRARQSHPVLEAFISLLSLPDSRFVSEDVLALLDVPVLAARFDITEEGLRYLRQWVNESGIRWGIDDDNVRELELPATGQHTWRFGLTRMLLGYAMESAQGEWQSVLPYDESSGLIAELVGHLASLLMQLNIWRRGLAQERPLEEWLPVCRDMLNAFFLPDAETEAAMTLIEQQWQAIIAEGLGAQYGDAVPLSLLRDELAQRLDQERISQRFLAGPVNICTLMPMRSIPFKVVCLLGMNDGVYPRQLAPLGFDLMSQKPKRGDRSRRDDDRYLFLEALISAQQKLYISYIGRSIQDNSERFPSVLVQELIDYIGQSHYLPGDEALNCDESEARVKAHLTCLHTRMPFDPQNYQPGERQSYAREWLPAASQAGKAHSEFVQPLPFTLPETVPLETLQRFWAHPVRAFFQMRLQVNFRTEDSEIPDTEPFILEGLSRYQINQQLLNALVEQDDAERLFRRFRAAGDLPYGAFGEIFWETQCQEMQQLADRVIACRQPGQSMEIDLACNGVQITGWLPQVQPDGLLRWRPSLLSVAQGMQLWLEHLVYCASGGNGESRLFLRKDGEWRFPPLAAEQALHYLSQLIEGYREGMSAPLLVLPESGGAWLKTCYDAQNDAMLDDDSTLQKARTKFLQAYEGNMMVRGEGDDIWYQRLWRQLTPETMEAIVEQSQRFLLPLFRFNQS
T1 sequence (P08394 whole entry): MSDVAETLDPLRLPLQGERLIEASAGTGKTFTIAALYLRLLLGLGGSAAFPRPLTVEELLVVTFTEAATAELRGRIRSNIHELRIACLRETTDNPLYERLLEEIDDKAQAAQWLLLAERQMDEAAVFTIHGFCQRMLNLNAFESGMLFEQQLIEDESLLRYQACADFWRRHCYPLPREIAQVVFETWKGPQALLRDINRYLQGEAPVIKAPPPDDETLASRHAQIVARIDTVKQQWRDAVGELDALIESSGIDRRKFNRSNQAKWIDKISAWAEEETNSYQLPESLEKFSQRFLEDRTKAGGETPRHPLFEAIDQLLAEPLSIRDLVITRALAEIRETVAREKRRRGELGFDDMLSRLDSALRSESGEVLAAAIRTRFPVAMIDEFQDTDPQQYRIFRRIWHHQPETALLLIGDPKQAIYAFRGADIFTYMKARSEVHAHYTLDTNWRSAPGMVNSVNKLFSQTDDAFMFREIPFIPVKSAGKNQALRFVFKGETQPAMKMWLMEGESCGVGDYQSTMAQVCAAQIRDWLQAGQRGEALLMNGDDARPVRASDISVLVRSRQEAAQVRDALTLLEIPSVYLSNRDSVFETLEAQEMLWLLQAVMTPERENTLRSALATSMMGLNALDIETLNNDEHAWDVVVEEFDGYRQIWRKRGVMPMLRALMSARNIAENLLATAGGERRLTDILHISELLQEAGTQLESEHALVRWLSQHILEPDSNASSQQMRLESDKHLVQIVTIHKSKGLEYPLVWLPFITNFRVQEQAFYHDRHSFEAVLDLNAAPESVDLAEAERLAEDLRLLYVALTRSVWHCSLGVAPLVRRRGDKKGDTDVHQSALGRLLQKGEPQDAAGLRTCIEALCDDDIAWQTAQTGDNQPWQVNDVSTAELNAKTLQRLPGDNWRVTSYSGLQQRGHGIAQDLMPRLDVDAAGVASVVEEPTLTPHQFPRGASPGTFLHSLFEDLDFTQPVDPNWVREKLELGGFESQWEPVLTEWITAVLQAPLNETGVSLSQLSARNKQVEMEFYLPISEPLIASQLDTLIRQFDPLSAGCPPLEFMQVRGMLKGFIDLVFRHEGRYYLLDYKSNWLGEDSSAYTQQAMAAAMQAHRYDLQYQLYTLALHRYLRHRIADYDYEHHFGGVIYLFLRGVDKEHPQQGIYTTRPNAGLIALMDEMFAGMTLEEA

Sequence of Mitogen-activated protein kinase kinase kinase kinase 2 (Q12851 whole entry): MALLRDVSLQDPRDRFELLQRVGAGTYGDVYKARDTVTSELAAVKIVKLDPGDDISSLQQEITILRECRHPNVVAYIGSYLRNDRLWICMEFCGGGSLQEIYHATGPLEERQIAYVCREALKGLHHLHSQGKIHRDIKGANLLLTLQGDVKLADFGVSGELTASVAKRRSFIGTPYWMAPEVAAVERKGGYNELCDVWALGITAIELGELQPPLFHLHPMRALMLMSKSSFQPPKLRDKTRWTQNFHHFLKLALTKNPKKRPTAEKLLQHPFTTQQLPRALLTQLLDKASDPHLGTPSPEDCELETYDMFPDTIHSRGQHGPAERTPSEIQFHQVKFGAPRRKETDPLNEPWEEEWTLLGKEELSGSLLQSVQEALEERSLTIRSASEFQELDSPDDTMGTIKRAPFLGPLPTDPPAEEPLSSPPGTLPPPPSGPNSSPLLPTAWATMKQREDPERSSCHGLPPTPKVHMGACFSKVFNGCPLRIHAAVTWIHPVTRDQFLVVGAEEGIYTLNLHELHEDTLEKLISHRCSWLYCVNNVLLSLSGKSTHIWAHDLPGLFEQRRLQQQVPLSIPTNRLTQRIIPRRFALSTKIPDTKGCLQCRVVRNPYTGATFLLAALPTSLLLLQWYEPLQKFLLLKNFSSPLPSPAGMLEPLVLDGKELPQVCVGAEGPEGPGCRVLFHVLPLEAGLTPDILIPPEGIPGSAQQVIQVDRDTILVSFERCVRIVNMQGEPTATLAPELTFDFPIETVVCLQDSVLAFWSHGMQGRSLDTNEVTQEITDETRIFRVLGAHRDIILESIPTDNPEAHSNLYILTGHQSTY
Sequence of Glycogen synthase kinase-3 alpha (P49840 whole entry): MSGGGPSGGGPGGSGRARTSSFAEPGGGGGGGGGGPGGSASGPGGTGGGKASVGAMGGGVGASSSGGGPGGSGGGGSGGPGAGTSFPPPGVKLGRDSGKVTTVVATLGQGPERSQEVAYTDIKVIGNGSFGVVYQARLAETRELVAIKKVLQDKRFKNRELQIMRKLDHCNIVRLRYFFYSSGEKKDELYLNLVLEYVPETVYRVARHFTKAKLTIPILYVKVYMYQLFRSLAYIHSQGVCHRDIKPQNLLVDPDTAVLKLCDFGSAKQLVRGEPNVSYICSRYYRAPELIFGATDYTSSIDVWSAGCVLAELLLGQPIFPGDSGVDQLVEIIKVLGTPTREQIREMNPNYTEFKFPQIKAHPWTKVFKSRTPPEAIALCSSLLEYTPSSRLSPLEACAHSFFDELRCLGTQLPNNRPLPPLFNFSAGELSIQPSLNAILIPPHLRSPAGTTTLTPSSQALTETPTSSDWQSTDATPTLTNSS
Sequence of Phosphorylase b kinase gamma catalytic chain, liver/testis isoform (P15735 whole entry, canonical isoform): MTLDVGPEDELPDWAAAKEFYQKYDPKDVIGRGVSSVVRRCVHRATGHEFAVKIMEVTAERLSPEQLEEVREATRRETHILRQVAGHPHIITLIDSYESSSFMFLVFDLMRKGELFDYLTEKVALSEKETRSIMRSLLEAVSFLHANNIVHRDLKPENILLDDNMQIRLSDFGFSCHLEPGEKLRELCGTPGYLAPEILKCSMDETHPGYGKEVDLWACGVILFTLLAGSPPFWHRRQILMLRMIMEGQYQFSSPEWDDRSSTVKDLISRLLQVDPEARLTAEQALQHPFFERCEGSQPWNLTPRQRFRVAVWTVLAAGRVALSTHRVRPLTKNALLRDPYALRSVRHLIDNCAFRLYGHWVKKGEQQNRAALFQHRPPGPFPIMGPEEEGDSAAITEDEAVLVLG
Sequence of MAP kinase-activated protein kinase 3 (Q16644 whole entry): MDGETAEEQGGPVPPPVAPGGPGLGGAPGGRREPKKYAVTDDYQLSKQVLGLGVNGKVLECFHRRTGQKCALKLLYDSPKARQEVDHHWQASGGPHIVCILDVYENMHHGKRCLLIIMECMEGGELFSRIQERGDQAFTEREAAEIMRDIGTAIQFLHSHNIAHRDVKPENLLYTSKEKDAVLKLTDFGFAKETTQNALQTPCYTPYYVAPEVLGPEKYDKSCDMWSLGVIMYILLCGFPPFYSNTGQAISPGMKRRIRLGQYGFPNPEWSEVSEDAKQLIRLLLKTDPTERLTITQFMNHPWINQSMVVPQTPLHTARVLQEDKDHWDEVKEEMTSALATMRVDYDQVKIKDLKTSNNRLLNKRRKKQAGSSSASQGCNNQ

Row | SMILES | Ki [1] | Ki [2] | Ki [3] | Ki [4] | IC50 [5]
1 | OC1CCC(Nc2cc(Cl)nc(-c3c[nH]c4ncccc34)n2)CC1 (stereo not given) | > 5.01 µM (inactive) | 0.0316 µM (active) | 0.00794 µM (active) | > 10 µM (inactive) | 
2 | COCC/N=c1\scc(-c2cccs2)n1/N=C/c1ccc(O)c(O)c1O |  |  |  |  | > 119 µM (inactive)
